Results taken from article PMC11887051, “Discovery of ONO-2920632 (VU6011887): A Highly Selective and CNS Penetrant TREK-2 (TWIK-Related K+ Channel 2) Preferring Activator In Vivo Tool Compound” (ACS Chemical Neuroscience, 2025).
pEC50: −log10 of the molar value. Where two headings read alike, the source gives them in different places.

How the values were obtained:
[1] = target: T1, TREK-1 (Homo sapiens, UniProt O95069); design: method as in PMID 32851651; conditions: read-out: functional EC50 for activation of TREK-1; cited from earlier work
T1 sequence (O95069 1-426): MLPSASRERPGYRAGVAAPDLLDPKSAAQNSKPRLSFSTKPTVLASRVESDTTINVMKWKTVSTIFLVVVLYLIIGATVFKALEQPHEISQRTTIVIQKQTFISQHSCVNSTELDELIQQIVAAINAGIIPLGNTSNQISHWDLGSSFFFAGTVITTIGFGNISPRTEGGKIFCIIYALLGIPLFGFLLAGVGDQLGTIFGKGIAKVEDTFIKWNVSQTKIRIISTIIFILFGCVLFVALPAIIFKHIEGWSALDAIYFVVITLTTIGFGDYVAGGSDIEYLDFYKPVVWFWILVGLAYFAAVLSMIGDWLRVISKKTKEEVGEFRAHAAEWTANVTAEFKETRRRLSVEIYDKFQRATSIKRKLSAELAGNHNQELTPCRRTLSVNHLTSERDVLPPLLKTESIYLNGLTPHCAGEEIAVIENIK

[2] = system: rodents; design: method as in PMID 32851651; conditions: cited from earlier work
[3] = target: T1, TREK-1; experiment: TREK-1 activation, BL-1249 series (assay not given); assay type: cell-based; conditions: assay format not stated
[4] = rat predicted hepatic clearance (hepatic microsomes); assay type: in vitro ADME
Description: Intrinsic clearance: Human or rat hepatic microsomes (0.5 mg/mL) and 1 µM test compound were incubated in 100 mM potassium phosphate pH 7.4 buffer with 3 mM MgCl2 at 37 °C with constant shaking. After a 5 min preincubation, the reaction was initiated by the addition of NADPH (1 mM). At selected time intervals (0, 3, 7, 15, 25, and 45 min), aliquots were taken and subsequently placed into a 96-well plate containing cold acetonitrile with internal standard (50 ng/mL carbamazepine). Plates were then centrifuged at 3000 rcf (4 °C) for 10 min, and the supernatant was transferred to a separate 96-well plate and diluted 1:1 with water for LC/MS/MS analysis. The in vitro half-life ( 1/2, min, Eq. 1), intrinsic clearance (CLint, mL/min/kg, Eq. 2), and subsequent predicted hepatic clearance (CLhep, mL/min/kg, Eq. 3) was determined employing the […]
where k represents the slope from linear regression analysis of the natural log percent remaining of a test compound as a function of incubation time […]
(2) CLint = in vitroT1/2 x mg microsomes x gram liver x kg body wt ascale-up factors: of 20 (human) or 45 (rat) […]
where Qh (hepatic blood flow, mL/min/kg) is 21 (human) or 70 (rat).
LC/MS/MS Bioanalysis of Samples from Plasma Protein Binding and Intrinsic Clearance […]
Samples were analyzed on a Thermo Electron TSQ Quantum Ultra triple quad mass spectrometer (San Jose, CA) via electrospray ionization (ESI) with two Themo Electron Accella pumps (San Jose, CA), and a Leap Technologies CTC PAL autosampler (Carrboro, NC). Analytes were separated by gradient elution on a dual column system with two Thermo Hypersil Gold (2.1 x 30 mm, 1.9 µm) columns (San Jose, CA) thermostated at 40 °C. HPLC mobile phase A was 0.1% formic acid in water and mobile phase B was 0.1% formic acid in acetonitrile. The gradient started […]
for 0.2 min; returned to 10% B in 0.1 min. The total run time was 1.3 min and the HPLC flow rate was 0.8 mL/min. While pump 1 ran the gradient method, pump 2 equilibrated the alternate column isocratically at 10% B. Compound optimization, data collection, and processing was performed using Thermo Electron's QuickQuan software (v2.3) and Xcalibur (v2.0.7 SP1).

[5] = target: T2, TREK-2 (Homo sapiens, UniProt P57789); experiment: TREK-2 activation, BL-1249 series (assay not given); assay type: cell-based; conditions: assay format not stated
T2 sequence (P57789 1-538): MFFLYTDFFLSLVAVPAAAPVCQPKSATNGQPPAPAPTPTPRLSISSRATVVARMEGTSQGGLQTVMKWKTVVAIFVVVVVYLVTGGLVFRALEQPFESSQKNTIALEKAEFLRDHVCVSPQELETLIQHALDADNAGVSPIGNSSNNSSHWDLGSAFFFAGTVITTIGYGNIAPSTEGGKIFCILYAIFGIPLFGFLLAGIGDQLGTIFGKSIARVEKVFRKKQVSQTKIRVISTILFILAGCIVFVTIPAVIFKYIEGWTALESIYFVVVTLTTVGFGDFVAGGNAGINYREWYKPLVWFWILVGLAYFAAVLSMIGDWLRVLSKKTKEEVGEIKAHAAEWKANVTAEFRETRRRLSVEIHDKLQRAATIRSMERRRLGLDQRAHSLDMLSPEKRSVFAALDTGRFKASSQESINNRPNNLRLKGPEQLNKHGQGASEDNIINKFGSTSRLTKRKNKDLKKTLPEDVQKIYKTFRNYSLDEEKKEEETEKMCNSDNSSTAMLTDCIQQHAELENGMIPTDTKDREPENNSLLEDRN

[6] = rat plasma protein binding (equilibrium dialysis); assay type: in vitro ADME; conditions: pH 7.4, read-out: rat plasma fu
Description: In vitro Plasma protein binding and Brain homogenate binding: Determination of fraction unbound (f u) in plasma was conducted in vitro via equilibrium dialysis using HTDialysis (HTD) membrane plates. The top half of the plate was filled with 100 uL of Dubelco’s Phosphate Buffered Saline, pH 7.4 (DPBS). Compounds were diluted into plasma from each species (5 µM final concentration), which was aliquoted in triplicate to the ‘bottom half’ of the prepared HTD plate wells. The HTD plate was sealed and incubated for 6 hours at 37 °C. Following incubation, each well (both top and bottom halves) were transferred (20 µL) to the corresponding wells of a 96-shallow-well (V-bottom) plate. The daughter plates were then matrix-matched (DPBS side wells received equal volume of plasma, and plasma side wells received equal volume of DPBS), and extraction solution (120 µL; acetonitrile containing 50 nM carbamazepine as IS) was added to all wells of both daughter plates to precipitate protein and extract test article. The plates were then sealed and centrifuged (3500 rcf) for 10 minutes at ambient temperature. Supernatant (60 µL) from each well of the daughter plates was then transferred to the corresponding wells of new daughter plates (96-shallow-well, V bottom) containing water (Milli-Q, 60 µL/well), and the plates were sealed in preparation for LC-MS/MS analysis (see LC-MS/MS analysis method below).
The unbound fraction (f u) was calculated following the equation below, and mean values for each species were calculated from 3 replicates. […]
Fraction unbound for both plasma and brain samples was determined using Equation 4.
Equation 4 Determination of fraction unbound in plasma. […]

Compound	pEC50 [1]	morphine-like adverse events at efficacious doses [2]	antinociceptive activity ([2]; naïve rodents and models of neuropathic and inflammatory pain)	pEC50 [3]	Emax [3] [%]	rat CLhep (predicted hepatic clearance) [4] [mL/min/kg]	pEC50 [5]	Emax [5] [%]	fraction unbound at 6 h, 5 µM [6]
N#C/C(=C\c1ccoc1)C(=O)O [Compound 3]	4.43	did not induce respiratory depression, rewarding effects, depression, constipation or other morphine-inducing adverse events	antinociceptive activity	–	–	–	–	–	–
O=c1[nH]c(-c2ccc(F)cc2Nc2cccc(C(F)(F)F)c2)no1 [Compound 11]	–	–	–	5.44	67	26.8	4.89	129	0.042
